Values of other authors as cited in US9498539B2, “Affinity-based controlled release system” (priority 2012, dated 2016).
Where two headings read alike, the source gives them in different places.

What was measured:
Streptavidin = Streptavidin (Streptomyces avidinii, UniProt P22629); settings: streptavidin binds 2-iminobiotin, medium affinity; cited from earlier work
[1] = 24 h; cited from earlier work
[2] = target: Src homology 3 domain (SH3) (Saccharomyces cerevisiae, UniProt P15891); settings: read-out: Kd (affinity to SH3), SH3-binding peptide to SH3, not part of the composition, cited from earlier work
Src homology 3 domain (SH3), sequence (P15891 532-592 limits assumed): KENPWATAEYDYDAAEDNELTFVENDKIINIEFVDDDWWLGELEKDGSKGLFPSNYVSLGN

Streptavidin, sequence (P22629 25-183): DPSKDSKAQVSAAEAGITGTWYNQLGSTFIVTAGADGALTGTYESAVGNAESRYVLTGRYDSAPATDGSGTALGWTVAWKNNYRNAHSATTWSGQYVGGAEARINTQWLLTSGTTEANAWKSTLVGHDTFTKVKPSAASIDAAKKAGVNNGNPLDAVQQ

N=C1N[C@H]2[C@H](CS[C@H]2CCCCC(=O)O)N1 [2-iminobiotin]
Kd (Streptavidin): 12.5 µM

FGF-2: basic fibroblast growth factor, literature data of Nakamura et al.
remaining bioactivity [1]: < 10%

KPPVVKKPHYLS [compound 4]
Kd [2]: 27 µM | Kd ([2]; listed as weak binder): 10 µM
